Assay results published in patent US8263606B2 (Xenon Pharmaceuticals Inc., priority 2008, dated 2012).
Structures can show the parent of a compound that is named as a salt.

What was measured:
sodium channel = assay: Guanidine influx assay (14C-guanidine radiotracer flux, in vitro); format: cell-based, human or rat; conditions: guanidine influx assay using a known cell line that expresses a sodium channel
Summary of the method: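 Sodium channel block is measured as reduced 14C-guanidine uptake in cells stably expressing human or rat channels, stimulated with aconitine. Potency is given as IC50 from a four-parameter curve.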

CYP3A4 = CYP3A4 (Homo sapiens, UniProt P08684); assay: Cytochrome P450 (CYP450) Inhibition Assay, CYP3A4 (Vivid fluorescence, BOMCC substrate); conditions: human, P450 Baculosomes (recombinant CYP3A4), probe BOMCC (Vivid substrate)
CYP3A4, sequence (P08684 whole entry): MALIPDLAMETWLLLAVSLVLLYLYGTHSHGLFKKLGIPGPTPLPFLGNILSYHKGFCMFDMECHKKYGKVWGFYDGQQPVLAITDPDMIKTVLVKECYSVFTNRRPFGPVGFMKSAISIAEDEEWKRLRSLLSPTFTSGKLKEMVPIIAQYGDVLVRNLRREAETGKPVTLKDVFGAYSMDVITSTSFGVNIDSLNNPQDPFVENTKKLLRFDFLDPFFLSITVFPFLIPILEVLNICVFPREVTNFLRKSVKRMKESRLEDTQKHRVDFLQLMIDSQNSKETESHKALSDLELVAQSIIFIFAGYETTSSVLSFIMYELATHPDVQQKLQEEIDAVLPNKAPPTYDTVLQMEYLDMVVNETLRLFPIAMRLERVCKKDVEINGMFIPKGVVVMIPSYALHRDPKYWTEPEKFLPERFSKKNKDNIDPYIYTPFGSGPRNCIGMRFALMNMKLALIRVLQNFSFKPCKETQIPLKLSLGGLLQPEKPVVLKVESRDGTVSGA

For `O=C1N(Cc2c(F)cccc2C(F)(F)F)c2ccccc2C12COc1cc3c(cc12)OCCO3` (stereo not shown) [Example 7.25, 1′-[(2-fluoro-6-trifluoromethyl)benzyl]-2,3-dihydrospiro[furo[2,3-g][1,4]benzodioxine-8,3′-indol]-2′(1′H)-one], the IC50 (sodium channel; activity level class) was 1 to 100 nM and the inhibition at 10 µM (CYP3A4) was less than 50%.

Compound `CN1CCC(CN2C(=O)C3(COc4cc5c(cc43)OCCO5)c3ccccc32)CC1` (stereo not shown) [Example 11.101, 1-[(1-methylpiperidin-4-yl)methyl]-2,3-dihydrospiro[furo[2,3-g][1,4]benzodioxine-8,3′-indol]-2′(1′H)-one hydrochloride] has an IC50 (sodium channel) of 1000 to 10000 nM and an inhibition at 10 µM (CYP3A4) of less than 50%.

In the case of `O=C1N(Cc2ccc(-c3ccccc3F)cc2)c2ccccc2C12COc1cc3c(cc12)CCO3` (stereo not shown) [Example 11.17, 1′-[(2′-fluorobiphenyl-4-yl)methyl]-5,6-dihydrospiro[benzo[1,2-b:5,4-b′]difuran-3,3′-indol]-2′(1′H)-one], the IC50 (sodium channel) is reported as 100 to 1000 nM and the inhibition at 10 µM (CYP3A4) is reported as less than 50%.

For `CCCCOc1ccc(-c2cccc3c2C2(COc4cc5c(cc42)CCO5)C(=O)N3C[C@H]2CCCO2)cc1` (stereo partly drawn) [Example 16.8, 4′-(4-butoxyphenyl)-1′-[(2R)-tetrahydrofuran-2-ylmethyl]-5,6-dihydrospiro[benzo[1,2-b:5,4-b′]difuran-3,3′-indol]-2′(1′H)-one], the IC50 (sodium channel) was 100 to 1000 nM and the inhibition at 10 µM (CYP3A4) was less than 50%.

Work on `NC(=O)CN1C(=O)C2(COc3cc4c(cc32)CCO4)c2ccccc21` (stereo not shown) [Example 12.46, 2-(2′-oxo-5,6-dihydrospiro[benzo[1,2-b:5,4-b′]difuran-3,3′-indol]-1′(2′H)-yl)acetamide] yielded an IC50 (sodium channel) of 1000 to 10000 nM and an inhibition at 10 µM (CYP3A4) of less than 50%.

`COCCOCCN1C(=O)C2(COc3cc4onc(C)c4cc32)c2ccccc21` (stereo not shown) [Example 9.54, 1′-[2-(2-methoxyethoxy)ethyl]-3-methylspiro[furo[3,2-f][1,2]benzisoxazole-5,3′-indol]-2′(1′H)-one] gave an IC50 (sodium channel) of 100 to 1000 nM and an inhibition at 10 µM (CYP3A4) of less than 50%.

`CC(C)N1CCOC(CN2C(=O)C3(COc4cc5c(cc43)CCO5)c3ccccc32)C1` (stereo not shown) [Example 11.42, 1′-{[4-(1-methylethyl)morpholin-2-yl]methyl}-5,6-dihydrospiro[benzo[1,2-b:5,4-b′]difuran-3,3′-indol]-2′(1′H)-one] gave an IC50 (sodium channel) of 1000 to 10000 nM and an inhibition at 10 µM (CYP3A4) greater than 50%.

With `O=C1N(Cc2ncccc2Cl)c2ccccc2C12COc1cc3c(cc12)OCCO3` (stereo not shown) [Example 4.112, 1-[(3-chloropyridin-2-yl)methyl]-2,3-dihydrospiro[furo[2,3-g][1,4]benzodioxine-8,3′-indol]-2′(1′H)-one] the IC50 (sodium channel; activity level class) was 1 to 100 nM and the inhibition at 10 µM (CYP3A4) was greater than 50%.

In the case of `CN1CCOC(CN2C(=O)C3(COc4cc5c(cc43)CCO5)c3ccccc32)C1` (stereo not shown) [Example 11.41, 1′-[(4-methylmorpholin-2-yl)methyl]-5,6-dihydrospiro[benzo[1,2-b:5,4-b′]difuran-3,3′-indol]-2′(1′H)-one], the IC50 (sodium channel) is reported as 100 to 1000 nM and the inhibition at 10 µM (CYP3A4) is reported as greater than 50%.

`COCCOCCN1C(=O)[C@@]2(COc3cc4c(cc32)OCCO4)c2ccccc21` [Example 9.70, (8S)-1′-[2-(2-methoxyethoxy)ethyl]-2,3-dihydrospiro[furo[2,3-g][1,4]benzodioxine-8,3′-indol]-2′(1′H)-one] was tested, and the IC50 (sodium channel) was 1 to 100 nM and the inhibition at 10 µM (CYP3A4) was less than 50%.

`Cn1ccc2cc(-c3cccc4c3C3(COc5cc6c(cc53)CCO6)C(=O)N4C[C@H]3CCCO3)ccc21` (stereo partly drawn) [Example 16.4, 4′-(1-methyl-1H-indol-5-yl)-1′-[(2R)-tetrahydrofuran-2-ylmethyl]-5,6-dihydrospiro[benzo[1,2-b:5,4-b′]difuran-3,3′-indol]-2′(1′H)-one] showed an IC50 (sodium channel) of 100 to 1000 nM and an inhibition at 10 µM (CYP3A4) greater than 50%.

For `CN1CCC(CN2C(=O)C3(COc4cc(F)c(F)cc43)c3ccccc32)CC1` (stereo not shown) [Example 11.112, 5,6-difluoro-1′-[(1-methylpiperidin-4-yl)methyl]spiro[1-benzofuran-3,3′-indol]-2′(1′H)-one hydrochloride], the IC50 (sodium channel) was 1 to 100 nM and the inhibition at 10 µM (CYP3A4) was greater than 50%.

With `NC(=O)c1coc(CN2C(=O)C3(COc4cc5c(cc43)CCO5)c3ccccc32)n1` (stereo not shown) [Example 13.3, 2-[(2′-oxo-5,6-dihydrospiro[benzo[1,2-b:5,4-b′]difuran-3,3′-indol]-1′(2′H)-yl)methyl]-1,3-oxazole-4-carboxamide] the IC50 (sodium channel) was 100 to 1000 nM and the inhibition at 10 µM (CYP3A4) was less than 50%.

`O=C1N(Cc2cncc(F)c2)c2ccccc2C12COc1cc3c(cc12)OCCO3` (stereo not shown) [Example 8.18, 1′-[(5-fluoropyridin-3-yl)methyl]-2,3-dihydrospiro[furo[2,3-g][1,4]benzodioxine-8,3′-indol]-2′(1′H)-one] showed an IC50 (sodium channel; activity level class) of 1 to 100 nM and an inhibition at 10 µM (CYP3A4) greater than 50%.

`CNC(=O)c1ccc(CN2C(=O)C3(COc4cc5c(cc43)CCO5)c3ccccc32)o1` (stereo not shown) [Example 13.2, N-methyl-5-[(2′-oxo-5,6-dihydrospiro[benzo[1,2-b:5,4-b′]difuran-3,3′-indol]-1′(2′H)-yl)methyl]furan-2-carboxamide] gave an IC50 (sodium channel) of 100 to 1000 nM and an inhibition at 10 µM (CYP3A4) greater than 50%.

With `COc1ccc(CCNC(=O)c2ccccc2CN2C(=O)C3(COc4cc5c(cc43)CCO5)c3ccccc32)cc1` (stereo not shown) [Example 12.22, N-[2-(4-methoxyphenyl)ethyl]-2-[(2′-oxo-5,6-dihydrospiro[benzo[1,2-b:5,4-b′]difuran-3,3′-indol]-1′(2′H)-yl)methyl]benzamide] the IC50 (sodium channel) was 1000 to 10000 nM and the inhibition at 10 µM (CYP3A4) was greater than 50%.

`O=C(NC1CC1)c1coc(CN2C(=O)C3(COc4cc5c(cc43)OCO5)c3ccccc32)n1` (stereo not shown) [Example 13.5, N-cyclopropyl-2-[(2′-oxospiro[furo[2,3-f][1,3]benzodioxole-7,3′-indol]-1′(2′H)-yl)methyl]-1,3-oxazole-4-carboxamide] gave an IC50 (sodium channel) of 1 to 100 nM and an inhibition at 10 µM (CYP3A4) greater than 50%.

In the case of `O=C1Nc2ccccc2C12COc1cc3c(cc12)S(=O)(=O)C=C3` (stereo not shown) [Example 3.40, spiro[indole-3,3′-thieno[2,3-f][1]benzofuran]-2(1′H)-one 5,5′-dioxide], the IC50 (sodium channel; activity level class) is reported as 1000 to 10000 nM and the inhibition at 10 µM (CYP3A4) is reported as less than 50%.

Compound `CCN(CC)C(=O)CN1C(=O)C2(COc3cc4c(cc32)CCO4)c2ccccc21` (stereo not shown) [Example 12.48, N,N-diethyl-2-(2′-oxo-5,6-dihydrospiro[benzo[1,2-b:5,4-b′]difuran-3,3′-indol]-1′(2′H)-yl)acetamide] has an IC50 (sodium channel) of 100 to 1000 nM and an inhibition at 10 µM (CYP3A4) of less than 50%.

Compound `O=C1N(Cc2ccccn2)c2ccccc2C12COc1cc3c(cc12)OCCC3` (stereo not shown) [Example 5.28, 1′-(pyridin-2-ylmethyl)-7,8-dihydro-6H-spiro-[furo[2,3-g]chromene-3,3′-indol]-2′(1′H)-one] has an IC50 (sodium channel; activity level class) of 1 to 100 nM and an inhibition at 10 µM (CYP3A4) greater than 50%.

Work on `O=C(Nc1ccc2c(c1)CCC2)c1ccc(CN2C(=O)C3(COc4cc5c(cc43)CCO5)c3ccccc32)cc1` (stereo not shown) [Example 12.32, N-(2,3-dihydro-1H-inden-5-yl)-4-[(2′-oxo-5,6-dihydrospiro[benzo[1,2-b:5,4-b′]difuran-3,3′-indol]-1′(2′H)-yl)methyl]benzamide] yielded an IC50 (sodium channel) of 1000 to 10000 nM and an inhibition at 10 µM (CYP3A4) of less than 50%.

For `O=C1N(C[C@@H]2CCCO2)c2ccccc2C12COc1cc3c(cc12)CCO3` (stereo partly drawn) [Example 4.5, 1′-[(2S)-tetrahydrofuran-2-ylmethyl]-5,6-dihydrospiro[benzo[1,2-b:5,4-b′]difuran-3,3′-indol]-2′(1′H)-one], the IC50 (sodium channel; activity level class) was 1 to 100 nM and the inhibition at 10 µM (CYP3A4) was less than 50%.

`COc1cc2c(c(OC)c1)C1(COc3cc4c(cc31)OCCO4)C(=O)N2` (stereo not shown) [Example 3.50, 4′,6′-dimethoxy-2,3-dihydrospiro[furo[2,3-g][1,4]benzodioxine-8,3′-indol]-2′(1′H)-one] showed an IC50 (sodium channel; activity level class) of 1000 to 10000 nM and an inhibition at 10 µM (CYP3A4) of less than 50%.
